In ChEMBL document CHEMBL5724806, “Unraveling interindividual differences and functional consequences of gut microbial metabolism of immunosuppressants” (2024):

Tests used:
Format in all cases: ADME
[1] = The drug is tested on Bacteroides caccae strain: DSM19024 for biotransformation under anaerobic condition. The drug concentrations were measured over 6 timepoints collected between 0 and 12 hours of incubation by liquid-chromatography-coupled mass spectrometry (LC–MS); design: dose 5 uM, timepoint 0, 1.5, 3, 6, 9, 12 hours; conditions: 5 µM
[2] = The drug is tested on Bacteroides fragilis strain: DSM2151 for biotransformation under anaerobic condition. The drug concentrations were measured over 6 timepoints collected between 0 and 12 hours of incubation by liquid-chromatography-coupled mass spectrometry (LC–MS); design: dose 5 uM, timepoint 0, 1.5, 3, 6, 9, 12 hours; conditions: 5 µM
[3] = The drug is tested on Bacteroides stercoris strain: HM 1036 for biotransformation under anaerobic condition. The drug concentrations were measured over 6 timepoints collected between 0 and 12 hours of incubation by liquid-chromatography-coupled mass spectrometry (LC–MS); design: dose 5 uM, timepoint 0, 1.5, 3, 6, 9, 12 hours; conditions: 5 µM
[4] = The drug is tested on Bacteroides uniformis strain: DSM6597 for biotransformation under anaerobic condition. The drug concentrations were measured over 6 timepoints collected between 0 and 12 hours of incubation by liquid-chromatography-coupled mass spectrometry (LC–MS); design: dose 5 uM, timepoint 0, 1.5, 3, 6, 9, 12 hours; conditions: 5 µM
[5] = The drug is tested on Clostridium bolteae strain: DSM15670 for biotransformation under anaerobic condition. The drug concentrations were measured over 6 timepoints collected between 0 and 12 hours of incubation by liquid-chromatography-coupled mass spectrometry (LC–MS); design: dose 5 uM, timepoint 0, 1.5, 3, 6, 9, 12 hours; conditions: enterocloster bolteae, 5 µM
[6] = The drug is tested on Clostridium ramosum strain: DSM1402 for biotransformation under anaerobic condition. The drug concentrations were measured over 6 timepoints collected between 0 and 12 hours of incubation by liquid-chromatography-coupled mass spectrometry (LC–MS); design: dose 5 uM, timepoint 0, 1.5, 3, 6, 9, 12 hours; conditions: thomasclavelia ramosa, 5 µM
[7] = The drug is tested on Coprococcus comes strain: ATCC27758 for biotransformation under anaerobic condition. The drug concentrations were measured over 6 timepoints collected between 0 and 12 hours of incubation by liquid-chromatography-coupled mass spectrometry (LC–MS); design: dose 5 uM, timepoint 0, 1.5, 3, 6, 9, 12 hours; conditions: 5 µM
[8] = The drug is tested on Lactobacillus paracasei strain: ATCC27092 for biotransformation under anaerobic condition. The drug concentrations were measured over 6 timepoints collected between 0 and 12 hours of incubation by liquid-chromatography-coupled mass spectrometry (LC–MS); design: dose 5 uM, timepoint 0, 1.5, 3, 6, 9, 12 hours; conditions: lacticaseibacillus paracasei, 5 µM
[9] = The drug is tested on Lactobacillus ruminis strain: ATCC25644 for biotransformation under anaerobic condition. The drug concentrations were measured over 6 timepoints collected between 0 and 12 hours of incubation by liquid-chromatography-coupled mass spectrometry (LC–MS); design: dose 5 uM, timepoint 0, 1.5, 3, 6, 9, 12 hours; conditions: ligilactobacillus ruminis, 5 µM
[10] = The drug is tested on Ruminococcus gnavus strain: ATCC29149 for biotransformation under anaerobic condition. The drug concentrations were measured over 6 timepoints collected between 0 and 12 hours of incubation by liquid-chromatography-coupled mass spectrometry (LC–MS); design: dose 5 uM, timepoint 0, 1.5, 3, 6, 9, 12 hours; conditions: mediterraneibacter gnavus, 5 µM
[11] = The drug is tested on Streptococcus salivarius strain: DSM20560 for biotransformation under anaerobic condition. The drug concentrations were measured over 6 timepoints collected between 0 and 12 hours of incubation by liquid-chromatography-coupled mass spectrometry (LC–MS); design: dose 5 uM, timepoint 0, 1.5, 3, 6, 9, 12 hours; conditions: 5 µM
[12] = The drug is tested on Gemella haemolysans strain: DSM107751 for biotransformation under microaerobic condition. The drug concentrations were measured over 6 timepoints collected between 0 and 12 hours of incubation by liquid-chromatography-coupled mass spectrometry (LC–MS); design: dose 5 uM, timepoint 0, 1.5, 3, 6, 9, 12 hours; conditions: 5 µM
[13] = The drug is tested on Lactobacillus gasseri strain: DSM20243 for biotransformation under microaerobic condition. The drug concentrations were measured over 6 timepoints collected between 0 and 12 hours of incubation by liquid-chromatography-coupled mass spectrometry (LC–MS); design: dose 5 uM, timepoint 0, 1.5, 3, 6, 9, 12 hours; conditions: 5 µM
[14] = The drug is tested on Streptococcus mitis strain: DSM12643 for biotransformation under microaerobic condition. The drug concentrations were measured over 6 timepoints collected between 0 and 12 hours of incubation by liquid-chromatography-coupled mass spectrometry (LC–MS); design: dose 5 uM, timepoint 0, 1.5, 3, 6, 9, 12 hours; conditions: 5 µM
[15] = The drug is tested on Streptococcus salivarius strain: DSM20560 for biotransformation under microaerobic condition. The drug concentrations were measured over 6 timepoints collected between 0 and 12 hours of incubation by liquid-chromatography-coupled mass spectrometry (LC–MS); design: dose 5 uM, timepoint 0, 1.5, 3, 6, 9, 12 hours; conditions: 5 µM
[16] = The drug is tested on the gut metagenome community of A-02 with ENA study accession number: PRJEB31790 for biotransformation under anaerobic condition. The drug concentrations were measured over 7 timepoints collected between 0 and 12 hours of incubation by liquid-chromatography-coupled mass spectrometry (LC–MS); design: dose 5 uM, timepoint 0, 0.75, 1.5, 3, 6, 9, 12 hours; conditions: 5 µM
[17] = The drug is tested on the gut metagenome community of A-03 with ENA study accession number: PRJEB31790 for biotransformation under anaerobic condition. The drug concentrations were measured over 7 timepoints collected between 0 and 12 hours of incubation by liquid-chromatography-coupled mass spectrometry (LC–MS); design: dose 5 uM, timepoint 0, 0.75, 1.5, 3, 6, 9, 12 hours; conditions: 5 µM
[18] = The drug is tested on the gut metagenome community of P-01 with ENA study accession number: PRJEB31790 for biotransformation under anaerobic condition. The drug concentrations were measured over 7 timepoints collected between 0 and 12 hours of incubation by liquid-chromatography-coupled mass spectrometry (LC–MS); design: dose 5 uM, timepoint 0, 0.75, 1.5, 3, 6, 9, 12 hours; conditions: 5 µM
[19] = The drug is tested on the gut metagenome community of T-01 with ENA study accession number: PRJEB31790 for biotransformation under anaerobic condition. The drug concentrations were measured over 7 timepoints collected between 0 and 12 hours of incubation by liquid-chromatography-coupled mass spectrometry (LC–MS); design: dose 5 uM, timepoint 0, 0.75, 1.5, 3, 6, 9, 12 hours; conditions: 5 µM
[20] = The drug is tested on the gut metagenome community of A-03 with ENA study accession number: PRJEB31790 for biotransformation under microaerobic condition. The drug concentrations were measured over 7 timepoints collected between 0 and 12 hours of incubation by liquid-chromatography-coupled mass spectrometry (LC–MS); design: dose 5 uM, timepoint 0, 0.75, 1.5, 3, 6, 9, 12 hours; conditions: 5 µM
[21] = The drug is tested on the gut metagenome community of A-04 with ENA study accession number: PRJEB31790 for biotransformation under microaerobic condition. The drug concentrations were measured over 7 timepoints collected between 0 and 12 hours of incubation by liquid-chromatography-coupled mass spectrometry (LC–MS); design: dose 5 uM, timepoint 0, 0.75, 1.5, 3, 6, 9, 12 hours; conditions: 5 µM
[22] = The drug is tested on the gut metagenome community of P-04 with ENA study accession number: PRJEB31790 for biotransformation under microaerobic condition. The drug concentrations were measured over 7 timepoints collected between 0 and 12 hours of incubation by liquid-chromatography-coupled mass spectrometry (LC–MS); design: dose 5 uM, timepoint 0, 0.75, 1.5, 3, 6, 9, 12 hours; conditions: 5 µM
[23] = The drug is tested on the gut metagenome community of T-04 with ENA study accession number: PRJEB31790 for biotransformation under microaerobic condition. The drug concentrations were measured over 7 timepoints collected between 0 and 12 hours of incubation by liquid-chromatography-coupled mass spectrometry (LC–MS); design: dose 5 uM, timepoint 0, 0.75, 1.5, 3, 6, 9, 12 hours; conditions: 5 µM

CCOc1nc2cccc(C(=O)O)c2n1Cc1ccc(-c2ccccc2-c2nnn[nH]2)cc1
Bacterial Biotransformation [1]: Compound NOT metabolized | Bacterial Biotransformation [2]: Compound NOT metabolized | Bacterial Biotransformation [3]: Compound NOT metabolized | Bacterial Biotransformation [4]: Compound NOT metabolized | Bacterial Biotransformation [5]: Compound NOT metabolized | Bacterial Biotransformation [6]: Compound NOT metabolized | Bacterial Biotransformation [7]: Compound NOT metabolized | Bacterial Biotransformation [8]: Compound NOT metabolized | Bacterial Biotransformation [9]: Compound NOT metabolized | Bacterial Biotransformation [10]: Compound NOT metabolized | Bacterial Biotransformation [11]: Compound NOT metabolized | Bacterial Biotransformation [12]: Compound NOT metabolized | Bacterial Biotransformation [13]: Compound NOT metabolized | Bacterial Biotransformation [14]: Compound NOT metabolized | Bacterial Biotransformation [15]: Compound NOT metabolized | Bacterial Biotransformation [16]: Compound NOT metabolized | Bacterial Biotransformation [17]: Compound NOT metabolized | Bacterial Biotransformation [18]: Compound NOT metabolized | Bacterial Biotransformation [19]: Compound NOT metabolized | Bacterial Biotransformation [20]: Compound NOT metabolized | Bacterial Biotransformation [21]: Compound NOT metabolized | Bacterial Biotransformation [22]: Compound NOT metabolized | Bacterial Biotransformation [23]: Compound NOT metabolized

CCOC(=O)[C@H](CCc1ccccc1)N[C@@H](C)C(=O)N1[C@H](C(=O)O)C[C@@H]2CCC[C@@H]21
Bacterial Biotransformation [1]: Compound NOT metabolized | Bacterial Biotransformation [2]: Compound NOT metabolized | Bacterial Biotransformation [3]: Compound NOT metabolized | Bacterial Biotransformation [4]: Compound NOT metabolized | Bacterial Biotransformation [5]: Compound NOT metabolized | Bacterial Biotransformation [6]: Compound NOT metabolized | Bacterial Biotransformation [7]: Compound NOT metabolized | Bacterial Biotransformation [8]: Compound NOT metabolized | Bacterial Biotransformation [9]: Compound NOT metabolized | Bacterial Biotransformation [10]: Compound NOT metabolized | Bacterial Biotransformation [11]: Compound NOT metabolized | Bacterial Biotransformation [12]: Compound NOT metabolized | Bacterial Biotransformation [13]: Compound NOT metabolized | Bacterial Biotransformation [14]: Compound NOT metabolized | Bacterial Biotransformation [15]: Compound metabolized | Bacterial Biotransformation [16]: Compound NOT metabolized | Bacterial Biotransformation [17]: Compound NOT metabolized | Bacterial Biotransformation [18]: Compound NOT metabolized | Bacterial Biotransformation [19]: Compound NOT metabolized | Bacterial Biotransformation [20]: Compound NOT metabolized | Bacterial Biotransformation [21]: Compound NOT metabolized | Bacterial Biotransformation [22]: Compound NOT metabolized | Bacterial Biotransformation [23]: Compound NOT metabolized

C[C@@H](NCCCc1cccc(C(F)(F)F)c1)c1cccc2ccccc12
Bacterial Biotransformation [1]: Compound NOT metabolized | Bacterial Biotransformation [2]: Compound NOT metabolized | Bacterial Biotransformation [3]: Compound NOT metabolized | Bacterial Biotransformation [4]: Compound NOT metabolized | Bacterial Biotransformation [5]: Compound NOT metabolized | Bacterial Biotransformation [6]: Compound NOT metabolized | Bacterial Biotransformation [7]: Compound NOT metabolized | Bacterial Biotransformation [8]: Compound NOT metabolized | Bacterial Biotransformation [9]: Compound NOT metabolized | Bacterial Biotransformation [10]: Compound NOT metabolized | Bacterial Biotransformation [11]: Compound NOT metabolized | Bacterial Biotransformation [12]: Compound NOT metabolized | Bacterial Biotransformation [13]: Compound NOT metabolized | Bacterial Biotransformation [14]: Compound NOT metabolized | Bacterial Biotransformation [15]: Compound NOT metabolized | Bacterial Biotransformation [16]: Compound NOT metabolized | Bacterial Biotransformation [17]: Compound NOT metabolized | Bacterial Biotransformation [18]: Compound NOT metabolized | Bacterial Biotransformation [19]: Compound metabolized | Bacterial Biotransformation [20]: Compound NOT metabolized | Bacterial Biotransformation [21]: Compound NOT metabolized | Bacterial Biotransformation [22]: Compound NOT metabolized | Bacterial Biotransformation [23]: Compound NOT metabolized

CCOC(=O)C1=C(COCCN)NC(C)=C(C(=O)OC)C1c1ccccc1Cl (stereo not given) [AMLODIPINE]
Bacterial Biotransformation [1]: Compound NOT metabolized | Bacterial Biotransformation [2]: Compound NOT metabolized | Bacterial Biotransformation [3]: Compound NOT metabolized | Bacterial Biotransformation [4]: Compound NOT metabolized | Bacterial Biotransformation [7]: Compound NOT metabolized | Bacterial Biotransformation [8]: Compound NOT metabolized | Bacterial Biotransformation [9]: Compound NOT metabolized | Bacterial Biotransformation [10]: Compound NOT metabolized | Bacterial Biotransformation [11]: Compound NOT metabolized | Bacterial Biotransformation [12]: Compound NOT metabolized | Bacterial Biotransformation [13]: Compound NOT metabolized | Bacterial Biotransformation [14]: Compound NOT metabolized | Bacterial Biotransformation [15]: Compound NOT metabolized | Bacterial Biotransformation [16]: Compound metabolized | Bacterial Biotransformation [17]: Compound NOT metabolized | Bacterial Biotransformation [18]: Compound NOT metabolized | Bacterial Biotransformation [19]: Compound NOT metabolized | Bacterial Biotransformation [20]: Compound NOT metabolized | Bacterial Biotransformation [21]: Compound NOT metabolized | Bacterial Biotransformation [22]: Compound NOT metabolized | Bacterial Biotransformation [23]: Compound NOT metabolized
